Legend:
[1] = Solubility of testosterone in various buffers; format: physicochemical; conditions: phosphate buffer pH 6.80, 72 h at RT
Procedure: The solubility of testosterone in different media was tested. An amount of testosterone (100 mg) was added to each of four glass vials containing 10 ml of either: a) HCl buffer (pH 1.20), b) Acetate buffer (pH 4.50), c) phosphate buffer solution (PBS) pH 6.80 and d) nano pure water. These samples were subjected for shaking in a water bath for 72 h at RT. The samples were suitably diluted and analyzed by the HPLC assay method described in Comparative Example 2. Solubility of testosterone was high in phosphate buffer pH 6.80.

[2] = Solubility in SLS after sonication; format: physicochemical; conditions: 1% w/v SLS, sonication 10 min
Procedure: Solubility of: a) 10 mg pure testosterone; and b) formulation PLF-2 equivalent to 10 mg testosterone in either 0.5%, 1%, or 2% SLS following sonication for 10 min. was determined. For these studies, 10 mg of pure testosterone was weighed and dissolved in either 100 ml of 0.5%, 1%, or 2% (w/v) SLS, respectively, in volumetric flasks. An amount of formulation PLF-2 that contained 10 mg of testosterone was weighed, and sample solutions were prepared in a similar way as that described above for the testosterone control. These solutions were subjected for sonication for 10 min in a bath sonicator. The samples were then filtered and diluted suitably in their respective concentrations of SLS. The amounts of soluble testosterone for each concentration of SLS was determined by using the HPLC assay method described in Comparative Example 2.

Compound: C[C@]12CC[C@H]3[C@@H](CCC4=CC(=O)CC[C@@]43C)[C@@H]1CC[C@@H]2O [testosterone]
- Solubility of testosterone [1]: high
- testosterone solubility [2]: high testosterone solubility

Source: patent publication US8957053B2, “Proliposomal testosterone formulations” (Tesorx Pharma, LLC, priority 2012, dated 2015)
